Data taken from ChEMBL document CHEMBL1201862, “PubChem BioAssay data set” (2004).
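Assay format: 96-well plates, 48-hour exposure. Here, GI50 denotes the concentration required for 50% inhibition of growth.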 The source made the active and inactive calls. Cut-off read from the data, not from the text of the source: active = GI50 up to about 1.1 µM and inactive = higher.

How the values were obtained:
Test in all cases: inhibition of tumour cell growth, NCI panel, 48 h
[1] = tested on: HCT-116
[2] = tested on: SF-268
[3] = tested on: M14
[4] = tested on: HCT-15
[5] = tested on: SNB-75
[6] = tested on: NCI-H522
[7] = tested on: UO-31
[8] = tested on: NCI-H226
[9] = tested on: CCRF-CEM
[10] = tested on: PC-3
[11] = tested on: NCI/ADR-RES
[12] = tested on: SR
[13] = tested on: KM12
[14] = tested on: MOLT-4
[15] = tested on: Hs-578T
[16] = tested on: U-251
[17] = tested on: A498
[18] = tested on: 786-0
[19] = tested on: HOP-62
[20] = tested on: SK-OV-3
[21] = tested on: MDA-N
[22] = tested on: MDA-MB-231
[23] = tested on: RPMI-8226
[24] = tested on: SW-620
[25] = tested on: DU-145
[26] = tested on: Malme-3M
[27] = tested on: NCI-H23
[28] = tested on: SK-MEL-5
[29] = tested on: MDA-MB-435
[30] = tested on: OVCAR-3
[31] = tested on: SF-539
[32] = tested on: ACHN
[33] = tested on: EKVX
[34] = tested on: OVCAR-5
[35] = tested on: HT-29
[36] = tested on: SN12C
[37] = tested on: IGROV-1
[38] = tested on: CAKI-1
[39] = tested on: K562
[40] = tested on: SF-295
[41] = tested on: UACC-62
[42] = tested on: MCF7
[43] = tested on: BT-549
[44] = tested on: A549
[45] = tested on: NCI-H460
[46] = tested on: HL-60
[47] = tested on: SNB-19
[48] = tested on: UACC-257
[49] = tested on: HOP-92
[50] = tested on: LOX IMVI
[51] = tested on: RXF 393
[52] = tested on: COLO 205
[53] = tested on: SK-MEL-2
[54] = tested on: OVCAR-4
[55] = tested on: HCC 2998
[56] = tested on: TK-10
[57] = tested on: OVCAR-8
[58] = tested on: SK-MEL-28

## CCOc1cc2c(cc1O)C(O)C[C@@H]1[C@@H]2CC[C@]2(C)[C@@H](O)CC[C@@H]12 (stereo partly specified)
[1]
  GI50: 0.261 µM (active)
[2]
  GI50: 4.16 µM (inactive)
[3]
  GI50: 0.575 µM (active)
[4]
  GI50: 0.218 µM
[5]
  GI50: 0.619 µM (active)
[6]
  GI50: 0.129 µM (active)
[7]
  GI50: 0.767 µM (active)
[8]
  GI50: 0.552 µM (active)
[9]
  GI50: 0.298 µM (active)
[10]
  GI50: 3.44 µM (inactive)
[11]
  GI50: 0.279 µM (active)
[12]
  GI50: 4.94 µM (inactive)
[13]
  GI50: 3.24 µM (inactive)
[14]
  GI50: 0.692 µM (active)
[15]
  GI50: 0.46 µM (active)
[16]
  GI50: 0.394 µM (active)
[17]
  GI50: 0.0501 µM (active)
[18]
  GI50: 0.324 µM (active)
[19]
  GI50: 0.675 µM (active)
[20]
  GI50: 0.493 µM (active)
[21]
  GI50: 0.0459 µM (active)
[22]
  GI50: 1.25 µM (inactive)
[23]
  GI50: 0.467 µM (active)
[24]
  GI50: 0.317 µM (active)
[25]
  GI50: 0.59 µM (active)
[26]
  GI50: 0.307 µM (active)
[27]
  GI50: 0.766 µM (active)
[28]
  GI50: 0.236 µM (active)
[29]
  GI50: 0.033 µM (active)
[30]
  GI50: 0.347 µM (active)
[31]
  GI50: 0.28 µM (active)
[32]
  GI50: 0.553 µM (active)
[33]
  GI50: 1.32 µM (inactive)
[34]
  GI50: 52.2 µM (inactive)
[35]
  GI50: 4.44 µM (inactive)
[36]
  GI50: 0.61 µM (active)
[37]
  GI50: 0.431 µM (active)
[38]
  GI50: 0.514 µM (active)
[39]
  GI50: 0.0991 µM (active)
[40]
  GI50: 0.281 µM (active)
[41]
  GI50: 0.284 µM (active)
[42]
  GI50: 0.268 µM (active)
[43]
  GI50: 39.1 µM (inactive)
[44]
  GI50: 0.231 µM (active)
[45]
  GI50: 0.265 µM (active)
[46]
  GI50: 0.0822 µM (active)
[47]
  GI50: 0.465 µM (active)
[48]
  GI50: 0.444 µM (active)
[49]
  GI50: 12.5 µM (inactive)
[50]
  GI50: 0.299 µM (active)
[51]
  GI50: 1.44 µM (inactive)
[52]
  GI50: 19.3 µM (inactive)
[53]
  GI50: > 100 µM (inactive)
[54]
  GI50: > 100 µM (inactive)
[55]
  GI50: 3.03 µM (inactive)
[56]
  GI50: 0.661 µM (active)
[57]
  GI50: 0.885 µM (active)

## CC1=NN(c2nc(N)nc(-c3sccc3N)n2)C(C)(C)C1
[1]
  GI50: 96.4 µM (inactive)
[2]
  GI50: > 100 µM (inactive)
[3]
  GI50: 23.9 µM (inactive)
[4]
  GI50: 59.4 µM
[5]
  GI50: 36.3 µM (inactive)
[6]
  GI50: 32.7 µM (inactive)
[7]
  GI50: > 100 µM (inactive)
[8]
  GI50: 33.1 µM (inactive)
[9]
  GI50: 43.6 µM (inactive)
[11]
  GI50: 37.1 µM (inactive)
[13]
  GI50: 46.1 µM (inactive)
[14]
  GI50: 83.9 µM (inactive)
[15]
  GI50: 89.3 µM (inactive)
[16]
  GI50: > 100 µM (inactive)
[17]
  GI50: > 100 µM (inactive)
[18]
  GI50: > 100 µM (inactive)
[19]
  GI50: > 100 µM (inactive)
[20]
  GI50: > 100 µM (inactive)
[21]
  GI50: 75.9 µM (inactive)
[22]
  GI50: 73.1 µM (inactive)
[23]
  GI50: 31.8 µM (inactive)
[24]
  GI50: > 100 µM (inactive)
[25]
  GI50: > 100 µM (inactive)
[26]
  GI50: 47.3 µM (inactive)
[27]
  GI50: 64.9 µM (inactive)
[28]
  GI50: 41.1 µM (inactive)
[29]
  GI50: 45 µM (inactive)
[30]
  GI50: > 100 µM (inactive)
[31]
  GI50: > 100 µM (inactive)
[32]
  GI50: > 100 µM (inactive)
[33]
  GI50: 82.6 µM (inactive)
[34]
  GI50: > 100 µM (inactive)
[35]
  GI50: > 100 µM (inactive)
[36]
  GI50: > 100 µM (inactive)
[37]
  GI50: > 100 µM (inactive)
[38]
  GI50: > 100 µM (inactive)
[39]
  GI50: 44.1 µM (inactive)
[40]
  GI50: 92.5 µM (inactive)
[41]
  GI50: 58.3 µM (inactive)
[42]
  GI50: 78 µM (inactive)
[43]
  GI50: 56.1 µM (inactive)
[44]
  GI50: 35.8 µM (inactive)
[45]
  GI50: 81.1 µM (inactive)
[46]
  GI50: 71.3 µM (inactive)
[47]
  GI50: > 100 µM (inactive)
[48]
  GI50: > 100 µM (inactive)
[49]
  GI50: > 100 µM (inactive)
[50]
  GI50: 90.4 µM (inactive)
[58]
  GI50: 40.2 µM (inactive)
[52]
  GI50: 79.1 µM (inactive)
[54]
  GI50: 21.7 µM (inactive)
[55]
  GI50: > 100 µM (inactive)
[56]
  GI50: > 100 µM (inactive)
[57]
  GI50: 62.5 µM (inactive)
